Data reported in PubChem BioAssay (NCI).
“And” between values parts separate entries of the source, which are not always exact repeats. Equal entries are not always repeated.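 Five concentrations, 48 hours, 96-well plates. At the GI50, growth is halved. The concentration for full growth arrest is given as TGI.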

Legend:
Test in all cases: inhibition of tumour cell growth, NCI panel, 48 h
HCT-116 colon = system: HCT-116 colon
NCI-H522 lung = system: NCI-H522 lung
OVCAR-8 ovarian = system: OVCAR-8 ovarian
SN12C renal = system: SN12C renal
SF-268 CNS = system: SF-268 CNS
ACHN renal = system: ACHN renal
MDA-MB-435 = system: MDA-MB-435
CCRF-CEM leukemia = system: CCRF-CEM leukemia
M14 melanoma = system: M14 melanoma
HL-60(TB) leukemia = system: HL-60(TB) leukemia

Structure (SMILES)	GI50 (HCT-116 colon)	TGI (HCT-116 colon)	GI50 (NCI-H522 lung)	TGI (NCI-H522 lung)	GI50 (OVCAR-8 ovarian)	TGI (OVCAR-8 ovarian)	GI50 (SN12C renal)	TGI (SN12C renal)	GI50 (SF-268 CNS)	TGI (SF-268 CNS)	GI50 (ACHN renal)	TGI (ACHN renal) [µM]	GI50 (MDA-MB-435)	TGI (MDA-MB-435) [µM]	GI50 (CCRF-CEM leukemia)	TGI (CCRF-CEM leukemia) [µM]	GI50 (M14 melanoma)	TGI (M14 melanoma) [µM]	GI50 (HL-60(TB) leukemia)	TGI (HL-60(TB) leukemia) [µM]
O=S1(=O)CC(Br)C(Br)C1 (configuration not stated)	2.34 µM	6.53 µM	1.99 µM	3.86 µM	4.85 µM	18.4 µM	4.07 µM	17.4 µM	21.5 µM	> 100 µM	2.61 µM	6.72	4.16 µM	18.6	1.6 µM	8.95	5.67 µM	20.8	3.5 µM	8.75
S=C(Nc1ccccc1)N1CCn2c1nsc2=Nc1ccccc1	34.6 µM	> 100 µM	46.2 µM	> 100 µM	> 100 µM	> 100 µM	> 100 µM	> 100 µM	> 100 µM	> 100 µM	50.3 µM	> 100	> 100 µM	> 100	31.4 µM	> 100	> 100 µM	> 100	> 100 µM	> 100
C(#Cc1ccccc1C#Cc1ccccn1)c1ccccn1	26.4 µM	> 100 µM	16.3 µM	36.3 µM	17.8 µM	40.1 µM	18.1 µM	35.1 µM	17.7 µM	35.7 µM	15.6 µM	29.6	8.43 µM	22.5	13.8 µM	38.6	22.1 µM	> 100	3.92 µM	17.7
CC(C)(O)CCC(O)C(C)(O)C1CCC2(O)C3=CC(=O)C4(O)CC(O)C(O)CC4(C)C3CCC12C (configuration not stated) (tested in a mixture with another compound)		> 100 µM		> 100 µM		> 100 µM		> 100 µM		> 100 µM		> 100		> 100		> 100		> 100		> 100
CC(C)(F)C[C@H](N[C@@H](c1ccc(-c2ccc(S(C)(=O)=O)cc2)cc1)C(F)(F)F)C(=O)NC1(C#N)CC1	22 µM and > 100 µM	55 µM and > 100 µM	15.8 µM and 24.7 µM	55 µM and > 100 µM	18 µM and 19.5 µM	55 µM and 63.8 µM	14.8 µM and 42.6 µM	55 µM and > 100 µM	22 µM and 18.8 µM	55 µM and 48.9 µM	> 55 µM and 39.5 µM	> 100	> 100 µM	> 100	> 100 µM	> 100	> 100 µM	> 100	> 100 µM	> 100
S=c1[nH]nc(SCc2ccccc2Cl)c2[nH]cnc12		> 100 µM		> 100 µM		> 100 µM		> 100 µM		> 100 µM		> 100		> 100		> 100		> 100		> 100
C#CCOc1cccc(Nc2ncc3ncn(C4CCN(C(=O)CCl)C4)c3n2)c1 (configuration not stated)	21.5 µM	> 62.5 µM	7.08 µM	18.1 µM	> 62.5 µM	> 62.5 µM	29.1 µM	> 62.5 µM	> 62.5 µM	> 62.5 µM	14.6 µM	46.2	> 62.5 µM	> 62.5	2.46 µM	> 62.5	> 62.5 µM	> 62.5	22.7 µM	> 62.5
Cc1c(N)nc(C(CC(N)=O)NCC(N)C(N)=O)nc1C(=O)NC(C(=O)NC(C)C(O)C(C)C(=O)NC(C(=O)NCCc1nc(-c2nc(C(=O)NCCCNCCCCN)cs2)cs1)C(C)O)C(OC1OC(CO)C(O)C(O)C1OC1OC(CO)C(O)C(OC(N)=O)C1O)c1cnc[nH]1 (configuration not stated)	0.288 µg/mL and 1.04 µg/mL	26.8 µg/mL and > 10 µM	7.11 µg/mL	> 10 µM	2.1 µg/mL and 1.04 µg/mL	9.85 µg/mL and 25.1 µg/mL and > 10 µM	3.12 µg/mL and 2.58 µg/mL	27.6 µg/mL and > 10 µM	2.55 µg/mL and 0.324 µg/mL	23.8 µg/mL and > 10 µM	0.182 µg/mL and 0.0425 µg/mL		15.9 µg/mL		3.15 µg/mL	> 10	9.31 µg/mL	> 10	11.8 µg/mL	
O=C(O)c1ccc2cccnc2c1O	0.532 µM	25 µM	0.948 µM	13.3 µM	1.27 µM	> 59.1 µM	0.797 µM	> 72.2 µM	0.999 µM	98.5 µM	1.7 µM	11.3	0.87 µM	35.8	0.989 µM	> 60.8	1.53 µM	26.6	1.89 µM	6.43
O=C(Nc1ccccc1C(=O)Nc1nccs1)c1ccccc1		> 100 µM		> 100 µM		> 100 µM		> 100 µM		60.9 µM		> 100		> 100		> 100		> 100		> 100
Cn1c(O)c(N=NC(N)=S)c2ccccc21	40.9 µM	> 100 µM	43.9 µM	> 100 µM	54.8 µM	> 100 µM	> 100 µM	> 100 µM	62.8 µM	> 100 µM	51.2 µM	> 100	> 100 µM	> 100	62.1 µM	> 100	95.9 µM	> 100	37.9 µM	> 100
Cc1[nH]n(-c2ccccc2)c(=O)c1C(=O)c1ccccc1	> 25 µM	> 25 µM	> 25 µM	> 25 µM	> 25 µM	> 25 µM	> 25 µM	> 25 µM	> 25 µM	> 25 µM	> 25 µM	> 25	> 25 µM	> 25	> 25 µM	> 25	> 25 µM	> 25	> 25 µM	> 25
COc1cc(/C=C/c2cc(/C=C/c3ccc(O)c(OC)c3)[nH]c(=O)n2)ccc1O	2.48 µM	12.4 µM	2.57 µM	7.95 µM	3.01 µM	12.7 µM	4.38 µM	> 100 µM	4.58 µM	> 100 µM	8.84 µM	> 100	2.72 µM	18.2	2.1 µM	6.22	3.12 µM	15.4	3.74 µM	12.1
